SMILES strings stand for the structures.

T1 sequence (P31391 whole entry): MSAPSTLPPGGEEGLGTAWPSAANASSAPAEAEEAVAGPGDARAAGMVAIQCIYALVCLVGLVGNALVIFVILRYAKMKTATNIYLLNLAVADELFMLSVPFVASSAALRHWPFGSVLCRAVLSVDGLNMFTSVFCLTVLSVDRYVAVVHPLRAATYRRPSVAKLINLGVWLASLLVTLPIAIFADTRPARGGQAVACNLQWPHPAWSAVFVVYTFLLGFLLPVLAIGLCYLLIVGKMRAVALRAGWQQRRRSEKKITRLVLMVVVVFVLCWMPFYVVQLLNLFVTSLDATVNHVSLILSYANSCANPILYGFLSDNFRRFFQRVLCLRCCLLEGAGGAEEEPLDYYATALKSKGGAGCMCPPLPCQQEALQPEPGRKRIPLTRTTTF

The assay has as its target T1, human SSTR4 (Homo sapiens, UniProt P31391).
T1 construct: expressed in transfected cells; host or cells: CHO-K1
The assay can be described thus: hSSTR4 cAMP assay (cAMP accumulation, LANCE Ultra cAMP kit, CHO-K1 human SSTR4 Gi cell line). Type of assay: cell-based. As to conditions: functional agonism, forskolin 10 μM stimulated CHO-K1 human SSTR4 Gi cells, 30 min at 25° C., at least duplicate, averaged; read-out: hSSTR4 EC50. The procedure:
cAMP accumulation assay using a CHO-K1 human SSTR4 Gi cell line.
Quantification of intracellular cAMP was performed using the LANCE Ultra cAMP assay kit from Revvity according to the manufacturer's instructions. CHO-K1 human SSTR4 Gi cell were either seeded in a density of 3K cells per well into a 384 well plate and incubated at 37° C. and 5% CO2 for 18-20 h or a stock of frozen cells were defrosted and seeded in a density of 5K cells per well without any further cultivation directly prior to the assay in a total volume of 5 μL in stimulation buffer. For pre-cultured cells, medium was replaced with 5 μL stimulation buffer before the assay. Cells were then stimulated with forskolin (final concentration 10 μM) and test compound (SSTR4 agonist) in increasing concentrations in duplicates for 30 min at 25° C. After stimulation, cells were lysed by addition of 10 μL of detection buffer (provided with the kit) and cell lysates were further diluted to ensure final cAMP concentrations fitted well into the dynamic range of the test kit. 10 μL of the diluted lysates were then added to respective wells of an OptiPlate-384 microplate. Thereafter, 5 μL of 4× Eu-cAMP tracer working solution was added, followed by addition of 5 μL of ULight-anti-cAMP working solution. The plate was then incubated for 1 h at 25° C. before reading on a TR-FRET microplate instrument. Data were normalized to cAMP high (forskolin only) and low control (forskolin+100 nM SST14) before fitting to a 4-Paramter logistic function.
All data was generated according to the cAMP assay conditions described above in at least duplicate and results are averaged and rounded to two significant figures.
On the technique in general: Changes in cAMP serve as a functional read-out for many G protein-coupled receptors.
Consider `Cc1cccn2c(C(C)(C)NC(=O)[C@@H]3CNCCN3Cc3cccc(F)c3)ncc12` [SC-029, (S)-1-(3-fluorobenzyl)-N-(2-(8-methylimidazo[1,5-a]pyridin-3-yl)propan-2-yl)piperazine-2-carboxamide], for which the EC50 is 0.11 nM. Turning to `Cc1cccn2c(C(C)(C)NC(=O)[C@@H]3CNCCN3Cc3ccc(C(F)(F)F)nc3)ncc12` [SC-030, (S)-N-(2-(8-methylimidazo[1,5-a]pyridin-3-yl)propan-2-yl)-1-((6-(trifluoromethyl)pyridin-3-yl)methyl)piperazine-2-carboxamide], the concentration for a half-maximal effect (EC50) stood at 0.48 nM. With `Cc1cccn2c(C(C)(C)NC(=O)[C@@H]3CNCCN3CC3(C)COC3)ncc12` [SC-031, (S)-N-(2-(8-methylimidazo[1,5-a]pyridin-3-yl)propan-2-yl)-1-((3-methyloxetan-3-yl)methyl)piperazine-2-carboxamide] the figure was 12 nM.

Consider `Cc1cccn2c(C(C)(C)NC(=O)[C@@H]3CNCCN3C3CCC(F)(F)CC3)ncc12` [SC-032, (S)-1-(4,4-difluorocyclohexyl)-N-(2-(8-methylimidazo[1,5-a]pyridin-3-yl)propan-2-yl)piperazine-2-carboxamide], for which the EC50 was determined as 0.23 nM.

On to `Cc1cccn2c(C(C)(C)NC(=O)[C@@H]3CNCCN3CC3CCC3)ncc12` [SC-033, (S)-1-(cyclobutylmethyl)-N-(2-(8-methylimidazo[1,5-a]pyridin-3-yl)propan-2-yl)piperazine-2-carboxamide], for which the 50% effective concentration (EC50) is 0.38 nM. With `Cc1cccn2c(C(C)(C)NC(=O)[C@@H]3CNCCN3CC(C)C)ncc12` [SC-034, (S)-1-isobutyl-N-(2-(8-methylimidazo[1,5-a]pyridin-3-yl)propan-2-yl)piperazine-2-carboxamide] the figure was 0.25 nM.

For `Cc1cccn2c(C(C)(C)NC(=O)[C@@H]3CNCCN3C(C)C)ncc12` [SC-035, (S)-1-isopropyl-N-(2-(8-methylimidazo[1,5-a]pyridin-3-yl)propan-2-yl)piperazine-2-carboxamide], the 50% effective concentration (EC50) was determined as 0.35 nM. In the case of `Cc1cccn2c(C(C)(C)NC(=O)[C@@H]3CNCCN3Cc3ccnc(C(F)(F)F)c3)ncc12` [SC-036, (S)-N-(2-(8-methylimidazo[1,5-a]pyridin-3-yl)propan-2-yl)-1-((2-(trifluoromethyl)pyridin-4-yl)methyl)piperazine-2-carboxamide] it was 0.09 nM; in that of `Cc1cccn2c(C(C)(C)NC(=O)[C@@H]3CNCCN3CC3(C)CCOCC3)ncc12` [SC-037, (S)-N-(2-(8-methylimidazo[1,5-a]pyridin-3-yl)propan-2-yl)-1-((4-methyltetrahydro-2H-pyran-4-yl)methyl)piperazine-2-carboxamide], 1.7 nM.

For `Cc1cccn2c(C(C)(C)NC(=O)[C@@H]3CNCCN3Cc3cnc(C(F)(F)F)nc3)ncc12` [SC-038, (S)-N-(2-(8-methylimidazo[1,5-a]pyridin-3-yl)propan-2-yl)-1-((2-(trifluoromethyl)pyrimidin-5-yl)methyl)piperazine-2-carboxamide], the EC50 came out at 0.6 nM.

`COCC(C)(C)CN1CCNC[C@H]1C(=O)NC(C)(C)c1ncc2c(C)cccn12` [SC-039, (S)-1-(3-methoxy-2,2-dimethylpropyl)-N-(2-(8-methylimidazo[1,5-a]pyridin-3-yl)propan-2-yl)piperazine-2-carboxamide]: the concentration for a half-maximal effect (EC50) came out at 1.4 nM. In the case of `Cc1cccc2c(C(C)(C)NC(=O)[C@@H]3CNCCN3C(C)C)n[nH]c12` [SC-040, (S)-1-isopropyl-N-(2-(7-methyl-1H-indazol-3-yl)propan-2-yl)piperazine-2-carboxamide] it was 0.39 nM; in that of `CCN1CCNC[C@H]1C(=O)NC(C)(C)c1n[nH]c2c(C)cccc12` [SC-041, (S)-1-ethyl-N-(2-(7-methyl-1H-indazol-3-yl)propan-2-yl)piperazine-2-carboxamide], 0.22 nM. Turning to `Cc1cccn2c(C(C)(C)NC(=O)[C@@H]3CNCCN3CC3COC3)ncc12` [SC-042, (S)-N-(2-(8-methylimidazo[1,5-a]pyridin-3-yl)propan-2-yl)-1-(oxetan-3-ylmethyl)piperazine-2-carboxamide], the EC50 turned out to be 1.3 nM. For the compound `Cc1cccn2c(C(C)(C)NC(=O)[C@@H]3CN(C)CCN3)ncc12` [SC-043, (S)-4-methyl-N-(2-(8-methylimidazo[1,5-a]pyridin-3-yl)propan-2-yl)piperazine-2-carboxamide], the EC50 worked out at 350 nM. With `Cc1cccn2c(C(C)(C)NC(=O)[C@@H]3CN(C)CCN3Cc3cnn(C)c3)ncc12` [SC-044, (S)-4-methyl-1-((1-methyl-1H-pyrazol-4-yl)methyl)-N-(2-(8-methylimidazo[1,5-a]pyridin-3-yl)propan-2-yl)piperazine-2-carboxamide] the figure was 6.1 nM.

Consider `Cc1cccn2c(C(C)(C)NC(=O)[C@@H]3CN(C)CCN3CC(F)(F)F)ncc12` [SC-045, (S)-4-methyl-N-(2-(8-methylimidazo[1,5-a]pyridin-3-yl)propan-2-yl)-1-(2,2,2-trifluoroethyl)piperazine-2-carboxamide], for which the EC50 was 1.4 nM.

In the case of `Cc1cccn2c(C(C)(C)NC(=O)[C@@H]3CN(C)CCN3C)ncc12` [SC-046, (S)-1,4-dimethyl-N-(2-(8-methylimidazo[1,5-a]pyridin-3-yl)propan-2-yl)piperazine-2-carboxamide], the concentration giving a half-maximal response (EC50) is 2.8 nM. With `Cc1cccn2c(C(C)(C)NC(=O)[C@@H]3CN(C)CCN3CC3CCOCC3)ncc12` [SC-047, (S)-4-methyl-N-(2-(8-methylimidazo[1,5-a]pyridin-3-yl)propan-2-yl)-1-((tetrahydro-2H-pyran-4-yl)methyl)piperazine-2-carboxamide], the EC50 is 0.45 nM. Turning to `Cc1cccn2c(C(C)(C)NC(=O)[C@@H]3CN(C)CCN3CC3COC3)ncc12` [SC-048, (S)-4-methyl-N-(2-(8-methylimidazo[1,5-a]pyridin-3-yl)propan-2-yl)-1-(oxetan-3-ylmethyl)piperazine-2-carboxamide], the EC50 is 9.2 nM. For the compound `Cc1cccn2c(C(C)(C)NC(=O)[C@@H]3CN(CC(F)(F)F)CCN3)ncc12` [SC-049, (S)-N-(2-(8-methylimidazo[1,5-a]pyridin-3-yl)propan-2-yl)-4-(2,2,2-trifluoroethyl)piperazine-2-carboxamide], the half-maximal effective concentration (EC50) came to 3300 nM. In the case of `Cc1cccn2c(C(C)(C)NC(=O)[C@@H]3CN(CC(F)F)CCN3)ncc12` [SC-050, (S)-4-(2,2-difluoroethyl)-N-(2-(8-methylimidazo[1,5-a]pyridin-3-yl)propan-2-yl)piperazine-2-carboxamide], the EC50 came out at 8200 nM. As to `COCCN1CCN[C@H](C(=O)NC(C)(C)c2ncc3c(C)cccn23)C1` [SC-051, (S)-4-(2-methoxyethyl)-N-(2-(8-methylimidazo[1,5-a]pyridin-3-yl)propan-2-yl)piperazine-2-carboxamide], the concentration giving a half-maximal response (EC50) is 990 nM. In the case of `Cc1cccn2c(C(C)(C)NC(=O)[C@@H]3CN(C(C)C)CCN3)ncc12` [SC-052, (S)-4-isopropyl-N-(2-(8-methylimidazo[1,5-a]pyridin-3-yl)propan-2-yl)piperazine-2-carboxamide] it was 22 nM; in that of `Cc1cccn2c(C(C)(C)NC(=O)[C@@H]3CN(C4CCC4)CCN3)ncc12` [SC-053, (S)-4-cyclobutyl-N-(2-(8-methylimidazo[1,5-a]pyridin-3-yl)propan-2-yl)piperazine-2-carboxamide], 520 nM.

What is called EC50 is the concentration giving half of the maximal effect.
